Measured values: patent US8183228B2, “Anticoagulant antithrombotic dual inhibitors comprising a biotin label” (MSD OSS B.V. Netherlands, priority 2005, dated 2012)
Where a name gives a salt, the structure may show the parent alone.

Columns and labels:
[1] = test system: guinea pig platelet aggregation; assay: In vitro neutralisation of inhibition of guinea pig platelet aggregation by avidin; format: cell-based; settings: avidin added to ADP-induced guinea pig platelet aggregation assay
Description: 2.1 In Vitro Neutralization of the Antithrombotic Activity A. In Vitro Neutralisation of Inhibition of Platelet Aggregation (Pre-Incubation of Compound with Avidin)
As performed in above described protocol for ADP-induced platelet aggregation. […] Before inducing the guinea pig platelet aggregation by adding ADP, compound and avidin (from egg white, Sigma) in different concentrations were pre-incubated for 2 minutes at room temperature (FIGS. 1 and 2).
B. In Vitro Neutralisation of Inhibition of Platelet Aggregation
(After Delayed Addition of Avidin)
(§1) As performed in above described protocol for ADP-induced platelet aggregation. […] After 7 minutes the detection of platelet aggregation was interrupted and avidin (from egg white, Sigma) in different concentrations was added at t=9 min. Within 1 minute the detection of the platelet aggregation was resumed (FIGS. 3 and 4).

[2] = test system: collagen induced platelet aggregation; assay: In vivo neutralization: collagen induced platelet aggregation (thrombocytopenia) model; settings: guinea pig; for neutralization of the platelet inhibitory activity by avidin: avidin 10 mg/kg just prior to collagen infusion
Description: 4. In Vivo Neutralization of the Antithrombotic Activity
An intravascular infusion of a collagen suspension induces platelet aggregation and causes transient thrombocytopenia in rats. This test is used to evaluate the influence of a test compound on the severity of thrombocytopenia induced by collagen in rats.
In the first experiment male guinea pigs were s.c. treated with compound 10 at a dose of 75 nmol/kg or vehicle at 4 hours before collagen infusion. In a second experiment compounds 12 and 17 were s.c. administered at a dose of 100 nmol/kg at the same time-point. Male guinea pigs were anaesthetized by i.m. administration of Ketamine+Sedamun (90+10 mg/kg, respectively). After 15 minutes one of the common carotid arteries was dissected free and cannulated with a PE 50 cannula (Clay Adams). Two blood samples of 0.5 mL were collected in plastic vials containing 25 μL 0.20 M Na2EDTA solution. The cannula was then connected to a syringe containing 0.25 mg/mL collagen suspension (Hormon Chemie, Munich, West Germany, diluted with isotonic buffer of pH 2.8). This suspension was administered via an infusion of 225 μL during 30 seconds. Then the syringe was disconnected and 2 blood samples of 0.5 mL were taken at 85 and 95 seconds after the start of the collagen infusion. Then the animals were killed with euthasate after which the number of platelets per sample were counted with a Sysmex blood cell counter model KX-21. In case avidin was used, 10 mg/kg of avidin was i.v. administered at t=4 h after s.c. administration of compound 10, 12 or 17 after which collagen was infused within 5 minutes.
After counting the number of platelets in the collected blood samples the decreased number of platelets is calculated by dividing the mean platelet number of the blood samples obtained at t=85 and 95 seconds by the mean value of the blood samples obtained at t=0. The test was carried out with n=4.

[3] = test system: human platelet aggregation; assay: In vitro neutralisation of inhibition of human platelet aggregation by avidin; format: cell-based; settings: avidin added 9 minutes after ADP-induced aggregation, human platelets
Description: as §1
In FIG. 5, the effect of avidin on the inhibition of human platelet aggregation by compound 17 is shown (addition of avidin 9 minutes after ADP-induced platelet aggregation).

[4] = Bleeding in guinea pigs and its stop by avidin; format: in vivo, guinea pig; settings: guinea pigs
[5] = 75 nmol/kg s.c., + avidin 10 mg/kg i.v. at t = 4 h
[6] = 75 nmol/kg s.c., without avidin
[7] = 100 nmol/kg s.c., + avidin 10 mg/kg i.v. at t = 4 h
[8] = 100 nmol/kg s.c., without avidin

Row | Compound | effect of avidin on inhibition of guinea pig platelet aggregation (neutralisation of anti-GPIIbIIIa activity) [1] | neutralization of the platelet inhibitory activity by avidin [2] | % inhibition [2, 7] | % remaining platelets [2, 7] | No. of platelets t = 0 [2, 7] | No. of platelets t = 90 sec [2, 7] | % remaining platelets [2, 8] | No. of platelets t = 0 [2, 8] | No. of platelets t = 90 sec [2, 8] | other results
1 | CO[C@H]1O[C@H](COS(=O)(=O)O)[C@@H](O[C@@H]2O[C@@H](C(=O)O)[C@@H](O[C@H]3O[C@H](COS(=O)(=O)O)[C@@H](O[C@@H]4O[C@H](C(=O)O)[C@@H](O[C@H]5O[C@H](COS(=O)(=O)O)[C@@H](OCCOCCOCCOCCNC(=O)[C@H](CCCCNC(=O)CCCC[C@@H]6SC[C@@H]7NC(=O)N[C@@H]76)NC(=O)COCCOCCOCCOCCNC(=O)c6cccc(S(=O)(=O)N[C@@H](Cc7ccc(OCCCCC8CCNCC8)cc7)C(=O)O)c6)[C@H](OC)[C@H]5OC)[C@H](OC)[C@H]4OC)[C@H](OS(=O)(=O)O)[C@H]3OS(=O)(=O)O)[C@H](OC)[C@H]2OC)[C@H](OS(=O)(=O)O)[C@H]1OS(=O)(=O)O [Compound 10, sodium salt] | immediate restoration of platelet aggregation | immediate and quantitative neutralization | – | – | – | – | – | – | – | No. of platelets t = 0 ([2]; 75 nmol/kg s.c., 4 h before collagen, without avidin): 386 ± 31; % inhibition ([2]; 75 nmol/kg s.c., 4 hours after administration, without avidin, sodium salt): 76 ± 4%; % inhibition [2, 5]: 2 ± 13%; % remaining platelets [2, 5]: 40.4 ± 7.8%; No. of platelets t = 0 [2, 5]: 384 ± 20; No. of platelets t = 90 sec [2, 5]: 152 ± 26; % remaining platelets [2, 6]: 85.3 ± 2.5%; No. of platelets t = 90 sec [2, 6]: 328 ± 18
2 | CO[C@H]1O[C@H](COS(=O)(=O)O)[C@@H](O[C@@H]2O[C@@H](C(=O)O)[C@@H](O[C@H]3O[C@H](COS(=O)(=O)O)[C@@H](O[C@@H]4O[C@H](C(=O)O)[C@@H](O[C@H]5O[C@H](COS(=O)(=O)O)[C@@H](OCCOCCOCCOCCNC(=O)COCCOCCOCCOCCNC(=O)c6cccc(S(=O)(=O)N[C@@H](Cc7ccc(OCCCCC8CCNCC8)cc7)C(=O)O)c6)[C@H](OC)[C@H]5OC)[C@H](OC)[C@H]4OC)[C@H](OS(=O)(=O)O)[C@H]3OS(=O)(=O)O)[C@H](OC)[C@H]2OC)[C@H](OS(=O)(=O)O)[C@H]1OS(=O)(=O)O [Compound 12, sodium salt, reference compound] | cannot be restored | not | 74 ± 3% | 86.5 ± 1.7% | 379 ± 6 | 329 ± 11 | 84.5 ± 2.2% | 426 ± 6 | 360 ± 7 | % inhibition ([2]; 100 nmol/kg s.c., 4 hours after administration, without avidin, sodium salt): 70 ± 4%
3 | CO[C@H]1O[C@H](COS(=O)(=O)O)[C@@H](O[C@@H]2O[C@@H](C(=O)O)[C@@H](O[C@H]3O[C@H](COS(=O)(=O)O)[C@@H](O[C@@H]4O[C@H](C(=O)O)[C@@H](O[C@H]5O[C@H](COS(=O)(=O)O)[C@@H](OCCOCCOCCOCCNC(=O)[C@H](CCCCNC(=O)C[C@H](NC(=O)CCCC[C@@H]6SC[C@@H]7NC(=O)N[C@@H]76)C(=O)O)NC(=O)COCCOCCOCCOCCNC(=O)c6cccc(S(=O)(=O)N[C@@H](Cc7ccc(OCCCCC8CCNCC8)cc7)C(=O)O)c6)[C@H](OC)[C@H]5OC)[C@H](OC)[C@H]4OC)[C@H](OS(=O)(=O)O)[C@H]3OS(=O)(=O)O)[C@H](OC)[C@H]2OC)[C@H](OS(=O)(=O)O)[C@H]1OS(=O)(=O)O [Compound 17, sodium salt] | – | immediate and quantitative neutralization | −5 ± 15% | 46.5 ± 7.8% | 367 ± 16 | 181 ± 12 | 82.5 ± 2.0% | 424 ± 11 | 348 ± 7 | effect of avidin on inhibition of human platelet aggregation [3]: full restoration of human platelet aggregation; bleeding induced after administration [4]: dose-dependent bleeding; effect of avidin on induced bleeding ([4]; avidin i.v. 10 mg/kg): stopped immediately
